Experimental findings from ChEMBL document CHEMBL1150819, “Microxine, a new cdc2 kinase inhibitor from the Australian marine sponge Microxina species” (J Nat Prod, 2001) are described below.

Each structure is given as a SMILES string. pIC50: −log10 of the molar value. Active and inactive are the calls of the source. The calls are words filed in the database; no cut-off is given here.

One assay has as its system A549. Kind of assay: Cytotoxicity against human A549 cells at 18 uM. It is filed as functional, cell-based.
Assay [1] addresses Cyclin-dependent kinase 1 (Homo sapiens, UniProt P06493).
In another assay the test system is P388. As to the kind of experiment: Cytotoxicity against mouse P388 cells at 18 uM. It counts as functional, cell-based.
The target in assay [2] is T1, M-phase inducer phosphatase 1 (Homo sapiens) (UniProt P30304).
T1 sequence (whole entry): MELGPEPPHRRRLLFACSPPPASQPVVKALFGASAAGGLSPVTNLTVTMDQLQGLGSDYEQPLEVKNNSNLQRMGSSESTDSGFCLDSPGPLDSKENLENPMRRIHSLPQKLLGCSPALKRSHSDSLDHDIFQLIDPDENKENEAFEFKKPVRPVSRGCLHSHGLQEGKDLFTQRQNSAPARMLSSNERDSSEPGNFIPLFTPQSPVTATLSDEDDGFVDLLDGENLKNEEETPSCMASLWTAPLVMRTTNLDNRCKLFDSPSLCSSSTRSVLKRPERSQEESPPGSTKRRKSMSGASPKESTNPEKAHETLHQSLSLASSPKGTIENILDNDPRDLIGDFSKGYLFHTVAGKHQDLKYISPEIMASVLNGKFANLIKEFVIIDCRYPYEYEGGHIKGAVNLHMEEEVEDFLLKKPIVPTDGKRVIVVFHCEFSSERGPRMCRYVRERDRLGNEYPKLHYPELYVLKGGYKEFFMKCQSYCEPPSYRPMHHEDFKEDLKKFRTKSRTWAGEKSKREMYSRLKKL
Kind of assay: Inhibition of Cdc25a up to 10 uM.

Cyclin-dependent kinase 1, sequence (P06493 whole entry): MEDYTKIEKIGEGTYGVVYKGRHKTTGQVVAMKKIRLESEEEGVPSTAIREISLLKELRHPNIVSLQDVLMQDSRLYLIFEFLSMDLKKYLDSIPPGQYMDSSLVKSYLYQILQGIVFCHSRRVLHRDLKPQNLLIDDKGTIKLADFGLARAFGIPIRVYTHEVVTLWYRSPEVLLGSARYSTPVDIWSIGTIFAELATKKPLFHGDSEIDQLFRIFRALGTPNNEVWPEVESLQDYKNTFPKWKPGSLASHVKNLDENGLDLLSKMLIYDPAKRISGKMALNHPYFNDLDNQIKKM

For `Cn1c(=O)[nH]c2ncnc(NCCS(=O)(=O)O)c21` [MICROXINE], the result (in the assay with A549; with P388; in assay [2]) was inactive. The pIC50 – broadly, the negative decadic logarithm of the IC50, by convention in mol/L – in assay [1] was 4.89.
